These results are taken from US20240158851A1, “METHOD FOR […] ADDICTION, METHOD FOR SCREENING THERAPEUTIC AGENT FOR DRUG ADDICTION AND PHARMACEUTICAL COMPOSITION FOR PREVENTING OR TREATING DRUG ADDICTION” (KOREA INSTITUTE OF SCIENCE AND TECHNOLOGY, priority 2020, published 2024).

The test system of assay [1] is SYNCRIP. The assay is described as follows: SYNCRIP expression in brain striatum by qPCR. To be noted: drug addiction animal model (MA) vs control group.
Assay [2] relates to miR-137. The experiment in a line: Serum miR-137 (qPCR) in mild drug-addicted animal model with striatal SYNCRIP overexpression. Particulars: mild drug addiction: methamphetamine 1.0 mg/kg i.p. once every other day for 2 weeks; lentivirus into striatum 4 weeks before.
Assay [3] has as its system SYNCRIP. The experiment in a line: SYNCRIP expression in brain striatum by Western blotting. To be noted: drug addiction animal model (MA) vs control group.
Assay [4] has as its system hyperactivity. The experiment in a line: Open field test of methamphetamine-induced hyperactivity. It is filed as in vivo, mouse. To be noted: open field 20 min after methamphetamine 4.0 mg/kg. On the procedure:
Before methamphetamine injection into each animal model, an open field test was conducted for 20 min to measure the activity of the animal model, which was used as a baseline.
4.0 mg/kg of methamphetamine was administered to the control group (Comparative group 1) and an open field test was again conducted for 20 min to measure the activity of the animal model.
4.0 mg/kg of methamphetamine was administered to the drug addiction animal model (MA) (Comparative group 2) and an open field test was again conducted for 20 min to measure the activity of the animal model.
Finally, the activity of each group was compared with the baseline and the activity increase was expressed as a percentage relative to the baseline.

Assay [5] has as its system egocentric spatial learning. The experiment in a line: Water cross maze test of egocentric spatial learning. Particulars: probe test after 3 days learning; lentivirus injected into striatum after drug addiction.
Assay [6] has as its system miR-137. The experiment in a line: Serum miR-137 (qPCR) in drug-addicted (gradual ramp-up) animal model with striatal SYNCRIP overexpression. Particulars: gradual ramp-up methamphetamine protocol, one week withdrawal; lentivirus into striatum 4 weeks before.
Assay [7] has as its system miR-137. The experiment in a line: miR-137 expression (qPCR) in striatum and serum of methamphetamine drug addiction animal model. Particulars: drug addiction animal model (MA) vs control group, gradual ramp-up protocol, one week withdrawal.

As for `CN[C@@H](C)Cc1ccccc1` [methamphetamine], in assay [1], the “expression level of SYNCRIP in brain striatum (qPCR)” value is on record as “decreased but was significantly higher”. For the same compound, the “expression level of serum miR-137” value in assay [2] is reported as “significantly low”. For the same compound, in assay [3], the “expression level of SYNCRIP in brain striatum (Western blotting)” value was “decreased to a significantly lower level”. In assay [4], the “hyperactivity (activity increase relative to baseline)” value is given as “significantly increased”. In addition, the “egocentric spatial learning (percent of mice)” value in assay [5] is listed as “abnormally enhanced”. The “expression level of miR-137 in serum” value is given as “significantly reduced” in assay [6] and “significantly low” in assay [7] (serum). The “expression level of miR-137 in striatum” value in assay [7] (striatum) is “significantly high”.
